Measurements from patent publication US9533977B2, “Oxazolidinone derivative as CETP inhibitor, its preparation method, and pharmaceutical composition comprising the same” (DONG-A ST CO., LTD., priority 2013, dated 2017).

molecular target: T1, CETP (Homo sapiens, UniProt P11597); test: Inhibitory activity against CETP in human plasma (Roar CETP activity kit, fluorescence); assay type: biochemical; conditions: plasma from healthy men diluted 1:10 in assay buffer, 37° C., 3 hrs, fluorescence 465/535 nm; read-out: IC50, Inhibition of CETP Activity in Human Plasma
T1 construct: from tissue; host or cells: human plasma from healthy men
T1 sequence (P11597 18-493): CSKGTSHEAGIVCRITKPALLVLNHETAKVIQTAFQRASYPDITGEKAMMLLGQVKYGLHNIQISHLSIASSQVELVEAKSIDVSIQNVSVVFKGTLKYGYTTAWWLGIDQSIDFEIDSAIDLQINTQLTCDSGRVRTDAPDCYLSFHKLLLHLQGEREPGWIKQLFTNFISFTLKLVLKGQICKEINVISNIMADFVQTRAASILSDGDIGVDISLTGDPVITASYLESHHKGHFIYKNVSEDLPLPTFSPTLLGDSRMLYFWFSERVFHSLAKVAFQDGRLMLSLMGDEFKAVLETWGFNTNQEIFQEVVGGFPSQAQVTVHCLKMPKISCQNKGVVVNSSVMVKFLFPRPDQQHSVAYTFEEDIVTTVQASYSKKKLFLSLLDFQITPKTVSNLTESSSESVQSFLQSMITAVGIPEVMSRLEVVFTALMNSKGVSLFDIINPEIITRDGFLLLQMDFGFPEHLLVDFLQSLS
In short: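 Healthy male human plasma, diluted 1:10, incubated 3 hrs at 37° C with donor/acceptor fluorescent substrates and compound (0.01–10000 nM, DMSO). Fluorescence at ex 465/em 535 nm, background-corrected against no-plasma and no-compound wells; IC50 from sigmoidal fit.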

Row | Compound | IC50
1 | CCN(c1ncc(-c2cccn2C)cc1CN1C(=O)O[C@H](c2cc(C(F)(F)F)cc(C(F)(F)F)c2)[C@@H]1C)C1CCCCC1 [Example 56, (4S,5R)-5-[3,5-bis(trifluoromethyl)phenyl]-4-methyl-3-({[2-(ethyl)(cyclohexyl-4-yl)amino]-5-(1-methyl-1H-pyrrol-2-yl)pyridin-3-yl}methyl) oxazolidin-2-one] | 10.9 nM
2 | CCCN(C[C@H]1CC[C@H](CC(=O)O)CC1)c1ncc(N2CCCC2)nc1CN1C(=O)OC(c2cc(C(F)(F)F)cc(C(F)(F)F)c2)[C@@H]1C (stereo partly drawn) [Example 124] | 7.13 nM
3 | CCN(c1ncc(-c2cccn2C)cc1CN1C(=O)O[C@H](c2cc(C(F)(F)F)cc(C(F)(F)F)c2)[C@@H]1C)C1CCOCC1 [Example 50, (4S,5R)-5-[3,5-bis(trifluoromethyl)phenyl]-4-methyl-3-({[2-(ethyl)(tetrahydro-2H-pyran-4-yl)amino]-5-(1-methyl-1H-pyrrol-2-yl)pyridin-3-yl}methyl)-oxazolidin-2-one] | 11.1 nM
4 | C[C@H]1C(c2cc(C(F)(F)F)cc(C(F)(F)F)c2)OC(=O)N1Cc1nc(N2CCCC2)cnc1N(C)C[C@H]1CC[C@H](CC(=O)O)CC1 (stereo partly drawn) [Example 127] | 43 nM
5 | CCN(c1ncc(C(F)(F)F)cc1CN1C(=O)O[C@H](c2cc(C(F)(F)F)cc(C(F)(F)F)c2)[C@@H]1C)C1CCSCC1 [Example 25, (4S,5R)-5-[3,5-bis(trifluoromethyl)phenyl]-4-methyl-3-({[2-(ethyl)(tetrahydro-2H-thiopyran-4-yl)amino]-5-(trifluoromethyl)pyridin-3-yl}methyl)-oxazolidin-2-one] | 108 nM
6 | C[C@H]1[C@@H](c2cc(C(F)(F)F)cc(C(F)(F)F)c2)OC(=O)N1Cc1cc(C(F)(F)F)cnc1N(C1CCC1)C1CCOCC1 [Example 11, (4S,5R)-5-[3,5-bis(trifluoromethyl)phenyl]-4-methyl-3-({[2-(cyclobutyl)(tetrahydro-2H-pyran-4-yl)amino]-5-(trifluoro)methylpyridin-3-yl}methyl)-oxazolidin-2-one] | 317 nM
7 | CCN(c1ncc(N2CCC2)cc1CN1C(=O)O[C@H](c2cc(C(F)(F)F)cc(C(F)(F)F)c2)[C@@H]1C)C1CCOCC1 [Example 43, (4S,5R)-5-[3,5-bis(trifluoromethyl)phenyl]-4-methyl-3-({[2-(ethyl)(tetrahydro-2H-pyran-4-yl)amino]-5-(azetidin-1-yl)pyridin-3-yl}methyl)-oxazolidin-2-one] | 7.9 nM
8 | CCN(C[C@H]1CC[C@H](CCO)CC1)c1ncc(-c2c(C)noc2C)nc1CN1C(=O)OC(c2cc(C(F)(F)F)cc(C(F)(F)F)c2)[C@@H]1C (stereo partly drawn) [Example 130] | 8.86 nM
9 | (4S,5R)-5-[3,5-bis(trifluoromethyl)phenyl]-4-methyl-3-({2-[(3R,4R)-4-ethoxytetrahydrofuran-3-yl)(methyl)amino]-5-(trifluoromethyl)pyridin-3-yl}methyl)-oxazolidin-2-one [Example 3] | 194 nM
10 | CCN(c1ncc(-c2cccc(F)c2)cc1CN1C(=O)O[C@H](c2cc(C(F)(F)F)cc(C(F)(F)F)c2)[C@@H]1C)C1CCOCC1 [Example 47, (4S,5R)-5-[3,5-bis(trifluoromethyl)phenyl]-4-methyl-3-({[2-(ethyl)(tetrahydro-2H-pyran-4-yl)amino]-5-(3-fluorophenyl)pyridin-3-yl}methyl)-oxazolidin-2-one] | 45 nM
11 | CCN(c1ncc(C(F)(F)F)cc1CN1C(=O)O[C@H](c2cc(C(F)(F)F)cc(C(F)(F)F)c2)[C@@H]1C)C1CCN(C(C)=O)CC1 [Example 33, (4S,5R)-5-[3,5-bis(trifluoromethyl)phenyl]-4-methyl-3-({[2-(ethyl)(1-acetylpiperidin-4-yl)amino]-5-(trifluoromethyl)pyridin-3-yl}methyl)-oxazolidin-2-one] | 39.9 nM
12 | CCN(c1ncccc1CN1C(=O)O[C@H](c2cc(C(F)(F)F)cc(C(F)(F)F)c2)[C@@H]1C)C1CCOCC1 [Example 52, (4S,5R)-5-[3,5-bis(trifluoromethyl)phenyl]-4-methyl-3-({[2-(ethyl)(tetrahydro-2H-pyran-4-yl)amino]-pyridin-3-yl}methyl)-oxazolidin-2-one] | 73.4 nM
13 | CCN(c1ncc(N2CCCC2C(F)(F)F)cc1CN1C(=O)O[C@H](c2cc(C(F)(F)F)cc(C(F)(F)F)c2)[C@@H]1C)C1CCCCC1 (stereo partly drawn) [Example 92, (4S,5R)-5-[3,5-bis(trifluoromethyl)phenyl]-4-methyl-3-({[2-(ethyl)(cyclohexyl)amino]-5-(2-(trifluoromethyl)-pyrrolidin-1-yl)pyridin-3-yl}methyl)-oxazolidin-2-one] | 48 nM
14 | CCCN(c1ncc(C(F)(F)F)cc1CN1C(=O)O[C@H](c2cc(C(F)(F)F)cc(C(F)(F)F)c2)[C@@H]1C)C1CCOCC1 [Example 8, (4S,5R)-5-[3,5-bis(trifluoromethyl)phenyl]-4-methyl-3-({[2-(propyl)(tetrahydro-2H-pyran-4-yl)amino]-5-(trifluoromethyl)pyridin-3-yl}methyl)-oxazolidin-2-one] | 14 nM
15 | CCN(c1ncc(N2CCC(F)(F)C2)cc1CN1C(=O)O[C@H](c2cc(C(F)(F)F)cc(C(F)(F)F)c2)[C@@H]1C)C1CCCCC1 [Example 91, (4S,5R)-5-[3,5-bis(trifluoromethyl)phenyl]-4-methyl-3-({[2-(ethyl)(cyclohexyl)amino]-5-(3,3-difluoro-pyrrolidin-1-yl)pyridin-3-yl}methyl)-oxazolidin-2-one] | 26.7 nM
16 | CCOC(=O)N1CCC(N(CC)c2ncc(C(F)(F)F)cc2CN2C(=O)O[C@H](c3cc(C(F)(F)F)cc(C(F)(F)F)c3)[C@@H]2C)CC1 [Example 36, ethyl 4-{[3-({(4S,5R)-5-[3,5-bis(trifluoromethyl)phenyl]-4-methyl-2-oxo-oxazolidin-3-yl}methyl)-5-(trifluoromethyl)pyridin-2-yl](ethyl)amino}piperidine-1-carboxylate] | 220 nM
17 | CCN(CC1CCC(CCO)CC1)c1ncc(N2CCCC2)nc1CN1C(=O)OC(c2cc(C(F)(F)F)cc(C(F)(F)F)c2)C1C [Example 131, trans-4-({[3-({(4S,5S)-5-[3,5-bis(trifluoromethyl)phenyl]-4-methyl-2-oxazolidin-3-yl}methyl)-5-(pyrrolidin-4-yl)pyrazin-2-yl]{[N-(ethyl)aminomethyl]cyclohexyl)}propanol] | 4.98 nM

Continued by falling IC50, values first:

Row | IC50 | Compound
18 | 29.7 nM | (4S,5R)-5-[3,5-bis(trifluoromethyl)phenyl]-4-methyl-3-({[2-(ethyl)(cyclohexyl)amino]-5-(2,4-dimethyl-thiazol-5-yl)pyridin-3-yl}methyl)-oxazolidin-2-one [Example 84]
19 | 23.7 nM | CCN(c1ncc(-c2ccco2)cc1CN1C(=O)O[C@H](c2cc(C(F)(F)F)cc(C(F)(F)F)c2)[C@@H]1C)C1CCOCC1 [Example 49, (4S,5R)-5-[3,5-bis(trifluoromethyl)phenyl]-4-methyl-3-({[2-(ethyl)(tetrahydro-2H-pyran-4-yl)amino]-5-(furan-2-yl)pyridin-3-yl}methyl)-oxazolidin-2-one]
20 | 11.8 nM | CCC1CCCN1c1cnc(N(CC)C2CCCCC2)c(CN2C(=O)O[C@H](c3cc(C(F)(F)F)cc(C(F)(F)F)c3)[C@@H]2C)c1 (stereo partly drawn) [Example 90, (4S,5R)-5-[3,5-bis(trifluoromethyl)phenyl]-4-methyl-3-({[2-(ethyl)(cyclohexyl)amino]-5-(2-ethyl-pyrrolidin-1-yl)pyridin-3-yl}methyl)-oxazolidin-2-one]
21 | 6.7 nM | CCN(c1ncc(-c2ccc(C#N)s2)cc1CN1C(=O)O[C@@H](c2cc(C(F)(F)F)cc(C(F)(F)F)c2)[C@@H]1C)C1CCCCC1 [Example 71, 5-{5-({(4S,5S)-5-[3,5-bis(trifluoromethyl)phenyl]-4-methyl-2-oxo-oxazolidin-3-yl}methyl)-6-[(cyclohexyl)(ethyl)amino]pyridin-3-yl}-thiophene-2-carbonitrile]
22 | 5.7 nM | CCN(c1ncc(-c2ccnn2C)cc1CN1C(=O)O[C@H](c2cc(C(F)(F)F)cc(C(F)(F)F)c2)[C@@H]1C)C1CCCCC1 [Example 59, (4S,5R)-5-[3,5-bis(trifluoromethyl)phenyl]-4-methyl-3-({[2-(ethyl)(cyclohexyl)amino]-5-(1-methyl-1H-pyrazol-5-yl)pyridin-3-yl}methyl)-oxazolidin-2-one]
23 | 4.68 nM | CCN(C[C@H]1CC[C@H](CC(=O)O)CC1)c1ncc(C2CCC2)nc1CN1C(=O)OC(c2cc(C(F)(F)F)cc(C(F)(F)F)c2)[C@@H]1C (stereo partly drawn) [Example 122]
24 | 3.45 nM | CCN(CC1CCCC1)c1ncc(-c2c(C)noc2C)nc1CN1C(=O)O[C@H](c2cc(C(F)(F)F)cc(C(F)(F)F)c2)[C@@H]1C [Example 101, (4S,5R)-5-[3,5-bis(trifluoromethyl)phenyl]-3-({[3-(cyclopentylmethyl)(ethyl)amino]-4-methyl 6-(3,5-dimethylisoxazol-4-yl)pyrazin-3-yl}methyl)-oxazolidin-2-one]

system: CETP; test: Effect on CETP activity in hamster administered with single dose; assay type: in vivo, Golden Syrian hamsters; conditions: hamsters, single oral dose 100 mg/kg, blood 0.5-24 hrs after administration, compared to pre-treatment
Procedure: Each of the compounds of the Examples was orally administered at a dose of 100 mg/kg to three 7-week-old male Golden Syrian hamsters per group. Blood samples were taken from the retro-orbital plexus before administration and 0.5, 1, 2, 4, 6, 8, and 24 hrs after administration, and measured for blood CETP activity using a Roar CETP activity assay kit (Cat#: RB-CETP, Roar Biomedical Inc.).

Row | Compound | Relative Maximal Inhibition of CETP Activity to Pre-Administration (%)
25 | CCN(c1ncc(-c2cccn2C)cc1CN1C(=O)O[C@H](c2cc(C(F)(F)F)cc(C(F)(F)F)c2)[C@@H]1C)C1CCCCC1 [Example 56, (4S,5R)-5-[3,5-bis(trifluoromethyl)phenyl]-4-methyl-3-({[2-(ethyl)(cyclohexyl-4-yl)amino]-5-(1-methyl-1H-pyrrol-2-yl)pyridin-3-yl}methyl) oxazolidin-2-one] | 49%
26 | CCCN(C[C@H]1CC[C@H](CC(=O)O)CC1)c1ncc(N2CCCC2)nc1CN1C(=O)OC(c2cc(C(F)(F)F)cc(C(F)(F)F)c2)[C@@H]1C (stereo partly drawn) [Example 124] | 52%
27 | CCN(c1ncc(-c2cccn2C)cc1CN1C(=O)O[C@H](c2cc(C(F)(F)F)cc(C(F)(F)F)c2)[C@@H]1C)C1CCOCC1 [Example 50, (4S,5R)-5-[3,5-bis(trifluoromethyl)phenyl]-4-methyl-3-({[2-(ethyl)(tetrahydro-2H-pyran-4-yl)amino]-5-(1-methyl-1H-pyrrol-2-yl)pyridin-3-yl}methyl)-oxazolidin-2-one] | 57%
